According to ChEMBL document CHEMBL1275554, “Caspofungin-resistant Candida tropicalis strains causing breakthrough fungemia in patients at high risk for hematologic malignancies” (Antimicrob Agents Chemother, 2008):
In brackets after ≈: the same amount, converted by molar mass. *1 amine or outer side, *2 acyl side, *3 side chain or, on linkers, in order; H or OH if unused. Where a SMILES comes first, the peptide text is derived from it. Bridges are numbered along the chain shown (N, C = ends). [ ]: non-standard residue; d: D form. The star is where a group is joined. hTyr(3S-OH,4S-OH,3'-OSO3H) = N[C@H](C(=O)O)[C@H](O)[C@@H](O)c1ccc(O)c(OS(=O)(=O)O)c1; pTerphenylCO(4''-OnC5H11) = CCCCCOc1ccc(-c2ccc(-c3ccc(C(=O)*)cc3)cc2)cc1; Orn(4R-OH,5R-OH) = O=C([C@H](C[C@@H](O)[C@@H](O)N[*:3])N[*:1])[*:2]; hTyr(3S-OH,4S-OH) = N[C@H](C(=O)O)[C@H](O)[C@@H](O)c1ccc(O)cc1; Pro(3S-OH,4S-Me) = C[C@H]1CN[C@H](C(=O)O)[C@H]1O; X1 = CCCCCOc1ccc(-c2cc(-c3ccc(C(=O)*)cc3)no2)cc1; Gln(3R-OH) = NC(=O)C[C@@H](O)[C@H](N)C(=O)O; Hyp = O=C(O)[C@@H]1C[C@@H](O)CN1

Legend:
Candida tropicalis [1] = test: Antifungal activity against Candida tropicalis ATCC 750; type: functional
Candida tropicalis [2] = test: Antifungal activity against Candida tropicalis T26 blood stream isolate harboring Fks1p LLTLSLRDP mutant protein; type: functional
[3] = target: T1, 1,3-beta-D-glucan synthase subunit 1 (Candida tropicalis, UniProt B6S6L8, S80P); test: Inhibition of Candida tropicalis T3 blood stream isolate glucan synthase subunit FKS1p with FLTLS/PLRDP mutant at monophasic kinetics
T1 sequence (B6S6L8 entry or part of it S80P): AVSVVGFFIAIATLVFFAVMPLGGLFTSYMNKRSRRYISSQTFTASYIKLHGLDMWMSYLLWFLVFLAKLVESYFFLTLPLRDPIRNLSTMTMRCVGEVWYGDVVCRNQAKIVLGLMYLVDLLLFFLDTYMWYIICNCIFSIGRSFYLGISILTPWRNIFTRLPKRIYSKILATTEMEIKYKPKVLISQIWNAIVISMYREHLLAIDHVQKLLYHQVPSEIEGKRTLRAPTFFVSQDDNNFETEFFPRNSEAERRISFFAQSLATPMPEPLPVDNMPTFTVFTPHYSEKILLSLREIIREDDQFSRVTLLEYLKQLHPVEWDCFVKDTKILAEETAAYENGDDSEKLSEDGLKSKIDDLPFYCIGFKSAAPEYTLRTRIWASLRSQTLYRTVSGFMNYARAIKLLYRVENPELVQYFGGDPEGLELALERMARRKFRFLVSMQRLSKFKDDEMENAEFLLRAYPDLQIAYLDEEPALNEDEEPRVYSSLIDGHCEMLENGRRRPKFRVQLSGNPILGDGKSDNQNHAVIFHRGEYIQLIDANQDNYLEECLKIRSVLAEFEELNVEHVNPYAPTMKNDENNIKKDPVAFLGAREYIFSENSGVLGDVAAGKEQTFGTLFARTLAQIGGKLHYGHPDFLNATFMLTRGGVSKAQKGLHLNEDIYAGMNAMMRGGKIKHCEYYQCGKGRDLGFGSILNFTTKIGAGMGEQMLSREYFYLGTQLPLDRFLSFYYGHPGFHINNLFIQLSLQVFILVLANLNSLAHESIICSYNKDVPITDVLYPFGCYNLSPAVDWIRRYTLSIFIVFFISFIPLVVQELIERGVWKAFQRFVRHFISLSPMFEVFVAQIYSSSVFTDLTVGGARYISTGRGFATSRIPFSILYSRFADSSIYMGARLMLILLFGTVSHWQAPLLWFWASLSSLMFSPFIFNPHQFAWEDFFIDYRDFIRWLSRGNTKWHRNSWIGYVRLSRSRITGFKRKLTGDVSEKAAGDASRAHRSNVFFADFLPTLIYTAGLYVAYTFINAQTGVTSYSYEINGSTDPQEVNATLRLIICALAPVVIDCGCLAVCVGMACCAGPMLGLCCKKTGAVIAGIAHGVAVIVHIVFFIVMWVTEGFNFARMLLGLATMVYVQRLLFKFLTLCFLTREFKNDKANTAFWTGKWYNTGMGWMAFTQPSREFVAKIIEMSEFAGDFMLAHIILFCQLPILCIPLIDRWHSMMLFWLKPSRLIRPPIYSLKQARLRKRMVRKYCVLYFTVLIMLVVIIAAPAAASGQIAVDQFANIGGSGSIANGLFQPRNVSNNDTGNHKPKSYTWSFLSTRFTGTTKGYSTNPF

Candida tropicalis [4] = test: Antifungal activity against Candida tropicalis T19 blood stream isolate harboring Fks1p FLTLS/PLRDP mutant protein; type: functional
Candida tropicalis [5] = test: Antifungal activity against Candida tropicalis T3 blood stream isolate harboring Fks1p FLTLS/PLRDP mutant protein; type: functional
[6] = Inhibition of Candida tropicalis T7 blood stream isolate glucan synthase subunit FKS1p at monophasic kinetics
[7] = target: T1, 1,3-beta-D-glucan synthase subunit 1; test: Inhibition of Candida tropicalis T3 blood stream isolate glucan synthase subunit FKS1p with FLTLS/PLRDP mutant at biphasic kinetics
Candida albicans [8] = test: Antifungal activity against Candida albicans 205 harboring Fks1p FLTLPLRDP mutant protein; type: functional
[9] = target: T1, 1,3-beta-D-glucan synthase subunit 1; test: Inhibition of Candida tropicalis T19 blood stream isolate glucan synthase subunit FKS1p with FLTLS/PLRDP mutant at biphasic kinetics
Beta-1,3-glucan synthase = target: T2, Beta-1,3-glucan synthase (Candida albicans, UniProt O13383); test: Inhibition of Candida albicans ATCC 90028 glucan synthase at monophasic kinetics
T2 sequence (O13383 whole entry): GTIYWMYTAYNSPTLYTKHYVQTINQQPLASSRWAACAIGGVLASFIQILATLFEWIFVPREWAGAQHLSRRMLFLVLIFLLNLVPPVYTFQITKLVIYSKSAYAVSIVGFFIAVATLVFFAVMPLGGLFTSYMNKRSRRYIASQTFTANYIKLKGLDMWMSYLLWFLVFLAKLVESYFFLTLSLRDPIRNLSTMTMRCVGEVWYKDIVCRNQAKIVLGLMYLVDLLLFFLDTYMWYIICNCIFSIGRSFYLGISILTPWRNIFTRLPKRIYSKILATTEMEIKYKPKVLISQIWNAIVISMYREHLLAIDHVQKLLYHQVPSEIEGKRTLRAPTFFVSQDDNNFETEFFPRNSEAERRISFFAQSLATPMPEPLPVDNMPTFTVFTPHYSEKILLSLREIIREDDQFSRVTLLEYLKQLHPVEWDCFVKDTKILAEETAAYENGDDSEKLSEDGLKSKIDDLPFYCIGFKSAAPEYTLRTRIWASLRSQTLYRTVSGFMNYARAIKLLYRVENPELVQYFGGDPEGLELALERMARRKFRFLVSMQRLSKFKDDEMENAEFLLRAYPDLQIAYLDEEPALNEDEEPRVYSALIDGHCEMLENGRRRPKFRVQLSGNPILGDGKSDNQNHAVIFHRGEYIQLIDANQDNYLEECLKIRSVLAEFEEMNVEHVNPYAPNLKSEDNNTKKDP

[10] = Inhibition of Candida albicans 205 glucan synthase subunit FKS1p FLTLPLRDP mutant at monophasic kinetics
[11] = Inhibition of Candida tropicalis ATCC 750 glucan synthase subunit FKS1p at monophasic kinetics
[12] = target: 1,3-beta-D-glucan synthase subunit 1 (Candida tropicalis, UniProt B6S6L8, F76L); test: Inhibition of Candida tropicalis T26 blood stream isolate glucan synthase subunit FKS1p with LLTLSLRDP mutant at monophasic kinetics
Chain of 1,3-beta-D-glucan synthase subunit 1 (Candida tropicalis, UniProt B6S6L8, F76L) (B6S6L8 entry or part of it F76L): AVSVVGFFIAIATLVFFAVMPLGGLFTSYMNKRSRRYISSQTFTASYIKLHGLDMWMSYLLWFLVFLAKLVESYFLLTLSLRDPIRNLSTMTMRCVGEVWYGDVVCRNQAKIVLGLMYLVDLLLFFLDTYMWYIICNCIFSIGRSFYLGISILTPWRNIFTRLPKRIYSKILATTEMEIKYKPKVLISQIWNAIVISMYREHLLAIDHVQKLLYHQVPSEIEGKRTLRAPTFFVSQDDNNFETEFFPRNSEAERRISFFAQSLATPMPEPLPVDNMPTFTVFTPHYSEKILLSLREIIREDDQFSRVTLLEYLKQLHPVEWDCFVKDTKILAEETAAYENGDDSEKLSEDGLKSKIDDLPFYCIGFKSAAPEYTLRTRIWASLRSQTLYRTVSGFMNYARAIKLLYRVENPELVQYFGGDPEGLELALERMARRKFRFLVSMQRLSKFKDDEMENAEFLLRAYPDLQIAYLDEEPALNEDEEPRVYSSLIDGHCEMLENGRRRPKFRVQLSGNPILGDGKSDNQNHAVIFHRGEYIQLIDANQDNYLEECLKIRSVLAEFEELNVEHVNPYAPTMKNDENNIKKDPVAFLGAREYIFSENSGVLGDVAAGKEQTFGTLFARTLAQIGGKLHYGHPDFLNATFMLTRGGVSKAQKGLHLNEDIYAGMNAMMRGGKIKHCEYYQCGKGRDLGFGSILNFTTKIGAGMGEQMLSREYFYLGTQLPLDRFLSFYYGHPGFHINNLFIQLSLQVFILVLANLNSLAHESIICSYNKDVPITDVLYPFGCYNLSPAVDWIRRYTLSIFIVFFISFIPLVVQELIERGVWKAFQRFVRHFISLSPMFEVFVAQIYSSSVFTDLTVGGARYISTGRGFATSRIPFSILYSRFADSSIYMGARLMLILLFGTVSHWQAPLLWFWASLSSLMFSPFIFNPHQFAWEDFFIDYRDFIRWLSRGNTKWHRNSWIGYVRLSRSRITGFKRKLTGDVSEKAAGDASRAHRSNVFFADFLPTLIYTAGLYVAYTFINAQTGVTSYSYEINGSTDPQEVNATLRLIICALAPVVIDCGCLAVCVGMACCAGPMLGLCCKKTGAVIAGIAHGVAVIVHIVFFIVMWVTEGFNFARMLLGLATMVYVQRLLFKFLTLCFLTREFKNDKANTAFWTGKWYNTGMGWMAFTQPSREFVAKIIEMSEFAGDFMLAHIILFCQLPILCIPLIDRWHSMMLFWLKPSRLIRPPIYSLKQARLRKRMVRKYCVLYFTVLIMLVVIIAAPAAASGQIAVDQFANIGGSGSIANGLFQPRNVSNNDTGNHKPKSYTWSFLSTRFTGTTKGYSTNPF

Candida albicans [13] = test: Antifungal activity against Candida albicans ATCC 90028; type: functional
Candida tropicalis [14] = test: Antifungal activity against Candida tropicalis T7 blood stream isolate; type: functional
[15] = target: T1, 1,3-beta-D-glucan synthase subunit 1; test: Inhibition of Candida tropicalis T19 blood stream isolate glucan synthase subunit FKS1p with FLTLS/PLRDP mutant at monophasic kinetics

| SMILES | MIC (Candida tropicalis [1]) | MIC (Candida tropicalis [2]) | IC50 [3] | MIC (Candida tropicalis [4]) | MIC (Candida tropicalis [5]) | IC50 [6] | IC50 [7] | MIC (Candida albicans [8]) | IC50 [9] | IC50 (Beta-1,3-glucan synthase) | IC50 [10] | IC50 [11] | IC50 [12] | MIC (Candida albicans [13]) | MIC (Candida tropicalis [14]) | IC50 [15] |
| --- | --- | --- | --- | --- | --- | --- | --- | --- | --- | --- | --- | --- | --- | --- | --- | --- |
| CCCCCOc1ccc(-c2cc(-c3ccc(C(=O)N[C@H]4C[C@@H](O)[C@@H](O)NC(=O)[C@@H]5[C@@H](O)[C@@H](C)CN5C(=O)[C@H]([C@H](O)CC(N)=O)NC(=O)[C@H]([C@H](O)[C@@H](O)c5ccc(O)c(OS(=O)(=O)O)c5)NC(=O)[C@@H]5C[C@@H](O)CN5C(=O)[C@H]([C@@H](C)O)NC4=O)cc3)no2)cc1 [MICAFUNGIN] (X1-[Orn(4R-OH,5R-OH)]T[Hyp][hTyr(3S-OH,4S-OH,3'-OSO3H)][Gln(3R-OH)][Pro(3S-OH,4S-Me)]; lactam 1-C) | 0.06 µg/mL (≈ 0.0472 µM) | 0.5 µg/mL (≈ 0.394 µM) | 0.117 nM | 2 µg/mL (≈ 1.57 µM) | 2 µg/mL (≈ 1.57 µM) | 0.006168 µg/mL (≈ 0.00486 µM) | 228 nM | 4 µg/mL (≈ 3.15 µM) | 223 nM | 14.8 nM | 1.085 µg/mL (≈ 0.854 µM) | 0.007545 µg/mL (≈ 0.00594 µM) | 59.6 nM | 0.03 µg/mL (≈ 0.0236 µM) | 0.06 µg/mL (≈ 0.0472 µM) |  |
| OC(Cn1cncn1)(Cn1cncn1)c1ccc(F)cc1F [FLUCONAZOLE] |  | 0.5 µg/mL (≈ 1.63 µM) |  | 32 µg/mL (≈ 104 µM) | 8 µg/mL (≈ 26.1 µM) |  |  |  |  |  |  |  |  |  | 0.25 µg/mL (≈ 0.816 µM) |  |
| CC[C@@H]([C@H](C)O)n1ncn(-c2ccc(N3CCN(c4ccc(OC[C@@H]5CO[C@@](Cn6cncn6)(c6ccc(F)cc6F)C5)cc4)CC3)cc2)c1=O [POSACONAZOLE] |  | 0.06 µg/mL (≈ 0.0856 µM) |  | 1 µg/mL (≈ 1.43 µM) | 0.25 µg/mL (≈ 0.357 µM) |  |  |  |  |  |  |  |  |  | 0.25 µg/mL (≈ 0.357 µM) |  |
| CCC(C)n1ncn(-c2ccc(N3CCN(c4ccc(OCC5COC(Cn6cncn6)(c6ccc(Cl)cc6Cl)O5)cc4)CC3)cc2)c1=O (stereo not drawn) [ITRACONAZOLE] |  | 0.125 µg/mL (≈ 0.177 µM) |  | 1 µg/mL (≈ 1.42 µM) | 0.5 µg/mL (≈ 0.709 µM) |  |  |  |  |  |  |  |  |  | 0.25 µg/mL (≈ 0.354 µM) |  |
| C[C@@H](c1ncncc1F)[C@](O)(Cn1cncn1)c1ccc(F)cc1F [VORICONAZOLE] |  | 0.03 µg/mL (≈ 0.0859 µM) |  | 2 µg/mL (≈ 5.73 µM) | 1 µg/mL (≈ 2.86 µM) |  |  |  |  |  |  |  |  |  | 0.06 µg/mL (≈ 0.172 µM) |  |
| CC[C@H](C)C[C@H](C)CCCCCCCCC(=O)N[C@H]1C[C@@H](O)[C@@H](NCCN)NC(=O)[C@@H]2[C@@H](O)CCN2C(=O)[C@H]([C@H](O)CCN)NC(=O)[C@H]([C@H](O)[C@@H](O)c2ccc(O)cc2)NC(=O)[C@@H]2C[C@@H](O)CN2C(=O)[C@H]([C@@H](C)O)NC1=O [CASPOFUNGIN] | 0.25 µg/mL (≈ 0.229 µM) | 1 µg/mL (≈ 0.915 µM) | 0.28 nM | 4 µg/mL (≈ 3.66 µM) | 4 µg/mL (≈ 3.66 µM) | 0.007652 µg/mL (≈ 0.007 µM) | 338 nM | 8 µg/mL (≈ 7.32 µM) | 241 nM | 0.457 nM | 0.2454 µg/mL (≈ 0.224 µM) | 0.002331 µg/mL (≈ 0.00213 µM) | 70.3 nM | 0.12 µg/mL (≈ 0.11 µM) | 0.5 µg/mL (≈ 0.457 µM) | 0.271 nM |
| CCCCCOc1ccc(-c2ccc(-c3ccc(C(=O)N[C@H]4C[C@@H](O)[C@@H](O)NC(=O)[C@@H]5[C@@H](O)[C@@H](C)CN5C(=O)[C@H]([C@@H](C)O)NC(=O)[C@H]([C@H](O)[C@@H](O)c5ccc(O)cc5)NC(=O)[C@@H]5C[C@@H](O)CN5C(=O)[C@H]([C@@H](C)O)NC4=O)cc3)cc2)cc1 [ANIDULAFUNGIN] ({pTerphenylCO(4''-OnC5H11)}-[Orn(4R-OH,5R-OH)]T[Hyp][hTyr(3S-OH,4S-OH)]T[Pro(3S-OH,4S-Me)]; lactam 1-C) | 0.06 µg/mL (≈ 0.0526 µM) | 0.5 µg/mL (≈ 0.438 µM) | 0.281 nM | 1 µg/mL (≈ 0.877 µM) | 2 µg/mL (≈ 1.75 µM) | 0.002689 µg/mL (≈ 0.00236 µM) | 205 nM | 2 µg/mL (≈ 1.75 µM) | 357 nM | 1.6 nM | 0.989 µg/mL (≈ 0.867 µM) | 0.004661 µg/mL (≈ 0.00409 µM) | 27.7 nM | 0.03 µg/mL (≈ 0.0263 µM) | 0.12 µg/mL (≈ 0.105 µM) | 0.503 nM |
